Experimental data taken from EP3189850A1, “LIVER TARGETING OF CYCLIC PRES-DERIVED PEPTIDES OF HBV” (Ruprecht-Karls-Universität Heidelberg, priority 2015, dated 2017).
Bridge positions count the residues as written; N and C are the ends. Square brackets hold non-standard residues; d marks the D form. Ends that are not written are not given here. * marks the point of attachment. Myristoyl = CCCCCCCCCCCCCC(=O)*

What was measured:
[1] = Biodistribution and γ-camera imaging of the 125I-labeled peptide (Figure 4); assay type: in vivo; details: γ-camera / biodistribution in NMRI mice
NTCP = target: T1, NTCP (Mus musculus, UniProt O08705); assay: Scintigraphic imaging (125I) and MicroPET (68Ga) of labelled peptides with and without excess of Myrcludex B (Figure 3); assay type: in vivo; details: healthy mice; labelled peptide with and without excess of Myrcludex B; 20 and 120 min p.i.
T1 construct: from tissue; host or cells: liver of healthy mice, in vivo imaging
T1 sequence (O08705 1-362): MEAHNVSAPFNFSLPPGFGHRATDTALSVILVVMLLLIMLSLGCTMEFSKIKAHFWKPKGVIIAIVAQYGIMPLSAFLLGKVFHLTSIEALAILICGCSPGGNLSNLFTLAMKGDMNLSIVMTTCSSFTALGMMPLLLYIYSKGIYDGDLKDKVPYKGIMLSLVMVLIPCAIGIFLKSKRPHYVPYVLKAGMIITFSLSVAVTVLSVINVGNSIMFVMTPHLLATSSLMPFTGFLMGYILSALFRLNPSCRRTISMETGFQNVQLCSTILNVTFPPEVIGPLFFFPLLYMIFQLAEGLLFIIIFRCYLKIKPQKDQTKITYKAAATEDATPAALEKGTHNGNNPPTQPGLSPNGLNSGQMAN
Protocol: Ca. 1 mL of [^68Ga]Ga^3+ eluate (ca. 600-800 MBq) was added to a mixture of 20 µL of a 1mM solution of compound xy in DMSO and 10 µL of saturated solution of ascorbic acid in water. The pH of the resulting mixture was adjusted to 3.5-4.0 by careful addition of a 2.5 M sodium acetate solution in water. Complexation was achieved by heating to over 95°C for 5-10 minutes under constant stirring. The product was isolated by solid phase extraction with ethanol followed by evaporation. The residue was taken up in 1% bovine serum albumin solution and an appropriate amount (ca. 20-50 MBq) was used for the individual experiment in a volume not exceeding 100 µl. Mice were anesthetized with 1% sevoflurane (Abbott, Wiesbaden, Germany) and images were recorded using an Inveon small animal positron emission tomographic (PET) scanner (Siemens, Knoxville, TN) up to 60 minutes postinjection.

| Substance | elimination via the intestine (time) [1] [h] | liver accumulation [1] | accumulation in the liver (NTCP) |
| --- | --- | --- | --- |
| myr-cyclo-intra[NP^*LGFFPDy] | ≤ 2 | accumulates rapidly in the liver | – |
| myr-cyclo[CNPLGFFPDC]y (Myristoyl-CNPLGFFPDC[dY]; disulfide 1-10; also: 125I-labelled) [cyclo[9-16]myr, myristoylated Cys-HBVpreS9-16-Cys-D-Tyr cyclized via disulfide bridge of the two cysteines] | – | – | NTCP specific accumulation in the liver |
